Assay results from the supplement of paper PMC11208160.

assay: recombinant UMI read abundance after kanamycin selection (control-corrected) (log10(CPM+1)); higher = more efficient recombination; extreme values may be limits of the assay; sequences stand for … in AGTGCAGAGAAAATCGGCCAGTTTTCTCTGCCTGCAGTCCGCATGCCGTGGGACCCCTTGGGTTCTAACCTGTTGCCTAGATTTATGCAGCGGACTGCCTTTCTCCCAAAGTGATAAACCGG…AGGTTGGTTTCACT; site = the 11-nt donor
In short: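 In Escherichia coli, a pool of donor and donor-binding-loop pairs, each with a 12-nt UMI, was tested for the IS621 bridge recombinase. Plating was on IPTG (0.07 mM) plus kanamycin, or without selection, in two replicates. Recombinant UMIs were amplified by PCR across the donor–target junction and sequenced, and counts were reported as log10(CPM+1) after averaging and control-derived scaling.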
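Further: IS621 bridge recombinase in Escherichia coli cells against a fixed T5 target plasmid.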

Sequence | recombinant UMI read abundance (log10)
GTTAGAACATGGACCGGTTTTCCCGGTAATCCGTATTTGGT (site GTTAGAACTGC) | 0
GTTAGAACATGGACCGGTTTTCCCGGTAATCCGTATTTGGT (site GTTAGAACTTC) | 0.0194
GTTAGACCATGGACCGGTTTTCCCGGTAATCCGTATTTGGA (site GTTAGACCTTC) | 0.00772
GTTAGACCATGGACCGGTTTTCCCGGTAATCCGTATTTGGC (site GTTAGAACTGC) | 0
GTTAGACCATGGACCGGTTTTCCCGGTAATCCGTATTTGGC (site GTTAGACCTGC) | 0
GTTAGACCATGGACCGGTTTTCCCGGTAATCCGTATTTGGC (site GTTAGAGCTGC) | 0
GTTAGACCATGGACCGGTTTTCCCGGTAATCCGTATTTGGC (site GTTAGATCTGC) | 0
GTTAGAGCATGGACCGGTTTTCCCGGTAATCCGTATTTGGC (site GTTAGAACTGC) | 2.02
GTTAGAGCATGGACCGGTTTTCCCGGTAATCCGTATTTGGC (site GTTAGACCTGC) | 0
GTTAGAGCATGGACCGGTTTTCCCGGTAATCCGTATTTGGC (site GTTAGAGCTGC) | 2.22
GTTAGAGCATGGACCGGTTTTCCCGGTAATCCGTATTTGGC (site GTTAGATCTGC) | 1.51
GTTAGGACATGGACCGGTTTTCCCGGTAATCCGTATTTGGC (site GTTAGAACTGC) | 1.16
GTTAGGACATGGACCGGTTTTCCCGGTAATCCGTATTTGGC (site GTTAGCACTGC) | 0
GTTAGGACATGGACCGGTTTTCCCGGTAATCCGTATTTGGC (site GTTAGGACTGC) | 2.84
GTTAGGACATGGACCGGTTTTCCCGGTAATCCGTATTTGGC (site GTTAGTACTGC) | 0
GTTATTCCATGGACCGGTTTTCCCGGTAATCCGTATTTGGT (site GTTATTCCTAC) | 0.469
GTTATTCCATGGACCGGTTTTCCCGGTAATCCGTATTTGGT (site GTTCTTCCTAC) | 0
GTTATTCCATGGACCGGTTTTCCCGGTAATCCGTATTTGGT (site GTTGTTCCTAC) | 0.00973
GTTATTCCATGGACCGGTTTTCCCGGTAATCCGTATTTGGT (site GTTTTTCCTAC) | 0
GTTCACGCATGGACCGGTTTTCCCGGTAATCCGTATTTGTT (site GTTCACGCTAA) | 1
GTTCATACATGGACCGGTTTTCCCGGTAATCCGTATTTGTG (site GTTCATACTCA) | 0.505
GTTCCGGCATGGACCGGTTTTCCCGGTAATCCGTATTTGCC (site GTTCCGGCTGG) | 0
GTTCGAGCATGGACCGGTTTTCCCGGTAATCCGTATTTGAA (site GTTCGAGCTTA) | 0.307
GTTCGAGCATGGACCGGTTTTCCCGGTAATCCGTATTTGAA (site GTTCGAGCTTC) | 0
GTTCGAGCATGGACCGGTTTTCCCGGTAATCCGTATTTGAA (site GTTCGAGCTTG) | 0

Sequence | recombinant UMI read abundance (log10)
GTTCGAGCATGGACCGGTTTTCCCGGTAATCCGTATTTGAA (site GTTCGAGCTTT) | 1.41
GTTCGAGCATGGACCGGTTTTCCCGGTAATCCGTATTTGCT (site GTTCGAGCTAG) | 1.9
GTTCGAGCATGGACCGGTTTTCCCGGTAATCCGTATTTGCT (site GTTCGAGCTCG) | 0.664
GTTCGAGCATGGACCGGTTTTCCCGGTAATCCGTATTTGCT (site GTTCGAGCTGG) | 0.928
GTTCGAGCATGGACCGGTTTTCCCGGTAATCCGTATTTGCT (site GTTCGAGCTTG) | 1.03
GTTCGAGCATGGACCGGTTTTCCCGGTAATCCGTATTTGGA (site GTTCGAGCTTA) | 0.635
GTTCGAGCATGGACCGGTTTTCCCGGTAATCCGTATTTGGA (site GTTCGAGCTTC) | 0.499
GTTCGAGCATGGACCGGTTTTCCCGGTAATCCGTATTTGGA (site GTTCGAGCTTG) | 0
GTTCGAGCATGGACCGGTTTTCCCGGTAATCCGTATTTGGA (site GTTCGAGCTTT) | 0.942
GTTCGATCATGGACCGGTTTTCCCGGTAATCCGTATTTGCC (site GTTCGATCTGG) | 1.92
GTTCGTACATGGACCGGTTTTCCCGGTAATCCGTATTTGCA (site GTTCGTACTTG) | 1.64
GTTCGTACATGGACCGGTTTTCCCGGTAATCCGTATTTGTT (site GTTCGTACTAA) | 0.0105
GTTCGTGCATGGACCGGTTTTCCCGGTAATCCGTATTTGCA (site GTTCGAGCTTG) | 0.585
GTTCGTGCATGGACCGGTTTTCCCGGTAATCCGTATTTGCA (site GTTCGCGCTTG) | 0.0038
GTTCGTGCATGGACCGGTTTTCCCGGTAATCCGTATTTGCA (site GTTCGGGCTTG) | 0.36
GTTCGTGCATGGACCGGTTTTCCCGGTAATCCGTATTTGCA (site GTTCGTGCTTG) | 1.96
GTTGAGACATGGACCGGTTTTCCCGGTAATCCGTATTTGAC (site GTTGAGACTGT) | 2.94
GTTGCTGCATGGACCGGTTTTCCCGGTAATCCGTATTTGAG (site GTTGCTGCTCT) | 0.388
GTTGGACCATGGACCGGTTTTCCCGGTAATCCGTATTTGCC (site GTTGGACCTGG) | 0
GTTGGCCCATGGACCGGTTTTCCCGGTAATCCGTATTTGAG (site GTTGGCCCTCT) | 0.0112
GTTGGGACATGGACCGGTTTTCCCGGTAATCCGTATTTGGC (site GTTGGGACTGC) | 1.53
GTTGGGGCATGGACCGGTTTTCCCGGTAATCCGTATTTGCG (site GTTGGGGCTCG) | 2.05
GTTGTACCATGGACCGGTTTTCCCGGTAATCCGTATTTGGT (site GTTGTACCTAC) | 0
GTTGTACCATGGACCGGTTTTCCCGGTAATCCGTATTTGGT (site GTTGTCCCTAC) | 0.0245
GTTGTACCATGGACCGGTTTTCCCGGTAATCCGTATTTGGT (site GTTGTGCCTAC) | 0.0127

Sequence | recombinant UMI read abundance (log10)
GTTGTACCATGGACCGGTTTTCCCGGTAATCCGTATTTGGT (site GTTGTTCCTAC) | 0
GTTGTGCCATGGACCGGTTTTCCCGGTAATCCGTATTTGGT (site GTTGTACCTAC) | 0.00401
GTTGTGCCATGGACCGGTTTTCCCGGTAATCCGTATTTGGT (site GTTGTCCCTAC) | 0.0044
GTTGTGCCATGGACCGGTTTTCCCGGTAATCCGTATTTGGT (site GTTGTGCCTAC) | 0.0934
GTTGTGCCATGGACCGGTTTTCCCGGTAATCCGTATTTGGT (site GTTGTTCCTAC) | 0.0079
GTTGTGGCATGGACCGGTTTTCCCGGTAATCCGTATTTGAG (site GTTGTGGCTCT) | 1.71
GTTGTTTCATGGACCGGTTTTCCCGGTAATCCGTATTTGGT (site GTTGTTACTAC) | 0.00963
GTTGTTTCATGGACCGGTTTTCCCGGTAATCCGTATTTGGT (site GTTGTTCCTAC) | 0.00733
GTTGTTTCATGGACCGGTTTTCCCGGTAATCCGTATTTGGT (site GTTGTTGCTAC) | 0.0146
GTTGTTTCATGGACCGGTTTTCCCGGTAATCCGTATTTGGT (site GTTGTTTCTAC) | 0.83
GTTTAAACATGGACCGGTTTTCCCGGTAATCCGTATTTGGA (site GTTTAAACTTC) | 0.655
GTTTAGGCATGGACCGGTTTTCCCGGTAATCCGTATTTGGC (site GTTTAGGCTGC) | 2.08
GTTTGCGCATGGACCGGTTTTCCCGGTAATCCGTATTTGGC (site GTTTGCGCTGC) | 2.03
GTTTGTTCATGGACCGGTTTTCCCGGTAATCCGTATTTGAT (site GTTTGTTCTAT) | 0.167
GTTTTTCCATGGACCGGTTTTCCCGGTAATCCGTATTTGGT (site GTTATTCCTAC) | 0.0038
GTTTTTCCATGGACCGGTTTTCCCGGTAATCCGTATTTGGT (site GTTCTTCCTAC) | 0.00946
GTTTTTCCATGGACCGGTTTTCCCGGTAATCCGTATTTGGT (site GTTGTTCCTAC) | 0.0239
GTTTTTCCATGGACCGGTTTTCCCGGTAATCCGTATTTGGT (site GTTTTTCCTAC) | 0
TAAAAGCCATGGACCGGTTTTCCCGGTAATCCGTATTTGAG (site TAAAAGCCTCT) | 0.525
TAAAATCCATGGACCGGTTTTCCCGGTAATCCGTATTTGTA (site TAAAATCCTTA) | 0
TAAAATCCATGGACCGGTTTTCCCGGTAATCCGTATTTGTA (site TAAACTCCTTA) | 1.43
TAAAATCCATGGACCGGTTTTCCCGGTAATCCGTATTTGTA (site TAAAGTCCTTA) | 0.431
TAAAATCCATGGACCGGTTTTCCCGGTAATCCGTATTTGTA (site TAAATTCCTTA) | 0
TAAACCCCATGGACCGGTTTTCCCGGTAATCCGTATTTGTA (site TAAACCCCTTA) | 1.33
TAAACTCCATGGACCGGTTTTCCCGGTAATCCGTATTTGTA (site TAAAATCCTTA) | 0.534
